According to patent US6887691B2, “DNA coding for protein which confers on bacterium Escherichia coli resistance to L-homoserine, and method for producing L-amino acids” (priority 1998, dated 2005):

What was measured:
Experiment in all cases: MIC of amino acids and amino acid analogues on M9 agar test plates
Format in all cases: cell-based
E. coli strain N99/pRhtB = settings: Escherichia coli
Experimental: (§1) Then the susceptibility of the thus obtained E. coli strain N99 rhtB::cat, of the initial strain N99 (rhtB^+) and of its derivative transformed with pRhtB plasmid, N99/pRhtB, to some amino acids and amino acid analogues was tested. overnight cultures of the strains grown in M9 minimal medium at 37° C. with a rotary shaker (10^9 cfu/ml) were diluted 1:100 and grown for 5 hours under the same conditions. Then the log phase cultures thus obtained were diluted and about 10^4 of alive cells were applied to well-dried test plates with M9 agar containing doubling increments of amino acids or analogues. The minimum inhibitory concentration (MIC) of these compounds were examined after 40-46 h cultivation.

[1] = test system: E. coli strain N99 (rhtB+); settings: Escherichia coli, initial strain, doubling increments, examined after 40-46 h cultivation
Experimental: as §1

[2] = test system: E. coli strain N99 rhtB::cat; settings: Escherichia coli
Experimental: To inactivate the chromosomal rhtB gene the plasmid pNPZ46 was constructed (FIG. 1) on the basis of pUK21 vector. It harbors a DNA fragment from 86 min of E. coli chromosome, with the rhtB gene and 5′-flanking and 3′-flanking regions thereof. Then the ClaI-Eco47III fragment of the pNPZ46 plasmid rhtB gene was substituted for AsuII-BsrBI fragment containing cat (Cm^R) gene of pACYC184 plasmid (Chang and Cohen, J. Bacteriol., 134, 1141-1156, 1978) giving the pNPZ47 plasmid (FIG. 1). To introduce the obtained insertionally inactivated rhtB gene into the chromosome of the E. coli strain N99 (the streptomycin-resistant derivative of the known strain W3350 (Campbell, Virology, 14, 22-33, 1961)), the method of Parker and Marinus was used (Parker, B. and Marinus, M. G., Gene, 73, 531-535, 1988).
as §1

For `CN(C)CC(N)C(=O)O` (racemic) [4-aza-DL-leucine, reference compound], the MIC (E. coli strain N99/pRhtB) was 100 µg/mL, the MIC [1] was 40 µg/mL and the MIC [2] was 40 µg/mL.

`NCCSC[C@H](N)C(=O)O` [AEC, S-(2-aminoethyl)-L-cysteine, reference compound] gave an MIC (E. coli strain N99/pRhtB) of 25 µg/mL, an MIC [1] of 10 µg/mL and an MIC [2] of 10 µg/mL.

With `CCCC(N)(O)C(=O)O` (stereo not drawn) [AHVA, α-amino-α-hydroxyvaleric-acid, reference compound] the MIC (E. coli strain N99/pRhtB) was 2000 µg/mL, the MIC [1] was 50 µg/mL and the MIC [2] was 25 µg/mL.

With `N[C@@H](CCO)C(=O)O` [L-homoserine] the MIC (E. coli strain N99/pRhtB) was 30000 µg/mL, the MIC [1] was 250 µg/mL and the MIC [2] was 125 µg/mL.

For `N[C@@H](CO)C(=O)O` [L-serine], the MIC (E. coli strain N99/pRhtB) was 10000 µg/mL, the MIC [1] was 5000 µg/mL and the MIC [2] was 5000 µg/mL.

Work on `C[C@@H](O)[C@H](N)C(=O)O` [L-threonine] yielded an MIC (E. coli strain N99/pRhtB) of 50000 µg/mL, an MIC [1] of 30000 µg/mL and an MIC [2] of 30000 µg/mL.

In the case of `CC(C)[C@H](N)C(=O)O` [L-valine], the MIC (E. coli strain N99/pRhtB) is reported as 1 µg/mL, the MIC [1] is reported as 0.5 µg/mL and the MIC [2] is reported as 0.5 µg/mL.
